Earlier results, collected in patent US20130296440A1 (CHROMADEX INC., priority 2012, published 2013).
Where two headings read alike, the source gives them in different places.

Tests used:
[1] = tested on: PLA2; details: cultured cells
[2] = for bioavailability: in vivo; for half life t1/2: in blood
[3] = target: T1, 5-LOX (Homo sapiens, UniProt P09917); details: cultured cells
T1 construct: endogenous in cells
T1 sequence (P09917 1-674): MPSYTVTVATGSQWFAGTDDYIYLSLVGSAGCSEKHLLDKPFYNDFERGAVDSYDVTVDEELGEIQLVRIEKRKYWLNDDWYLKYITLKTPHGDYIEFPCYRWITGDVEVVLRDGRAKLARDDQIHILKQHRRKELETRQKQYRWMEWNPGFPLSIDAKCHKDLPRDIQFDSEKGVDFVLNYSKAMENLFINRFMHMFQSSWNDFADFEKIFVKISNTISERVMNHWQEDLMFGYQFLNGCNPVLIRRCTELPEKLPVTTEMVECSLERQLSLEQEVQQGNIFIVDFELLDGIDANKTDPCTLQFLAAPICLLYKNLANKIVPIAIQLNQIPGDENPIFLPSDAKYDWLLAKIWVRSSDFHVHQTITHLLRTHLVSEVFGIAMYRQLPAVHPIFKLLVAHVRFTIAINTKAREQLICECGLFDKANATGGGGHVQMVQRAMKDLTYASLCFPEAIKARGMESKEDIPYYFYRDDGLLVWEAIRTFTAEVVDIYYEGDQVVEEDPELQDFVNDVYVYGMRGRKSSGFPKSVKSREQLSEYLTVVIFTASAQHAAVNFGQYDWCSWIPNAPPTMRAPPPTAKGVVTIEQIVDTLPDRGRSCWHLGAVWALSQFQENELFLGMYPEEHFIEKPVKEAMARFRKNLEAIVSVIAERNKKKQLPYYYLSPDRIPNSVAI

[4] = tested on: COX-2; details: cultured cells
[5] = tested on: H4IIEC3 rat liver cells; details: 100 μM
[6] = target: T2, PPAR-alpha (Rattus norvegicus, UniProt P37230); details: for PPAR-alpha activation: luciferase reporter
T2 construct: Using a luciferase reporter gene construct containing the peroxisome proliferator response element promoter region; endogenous in cells; host or cells: H4IIEC3 rat liver cells
T2 sequence (P37230 1-468): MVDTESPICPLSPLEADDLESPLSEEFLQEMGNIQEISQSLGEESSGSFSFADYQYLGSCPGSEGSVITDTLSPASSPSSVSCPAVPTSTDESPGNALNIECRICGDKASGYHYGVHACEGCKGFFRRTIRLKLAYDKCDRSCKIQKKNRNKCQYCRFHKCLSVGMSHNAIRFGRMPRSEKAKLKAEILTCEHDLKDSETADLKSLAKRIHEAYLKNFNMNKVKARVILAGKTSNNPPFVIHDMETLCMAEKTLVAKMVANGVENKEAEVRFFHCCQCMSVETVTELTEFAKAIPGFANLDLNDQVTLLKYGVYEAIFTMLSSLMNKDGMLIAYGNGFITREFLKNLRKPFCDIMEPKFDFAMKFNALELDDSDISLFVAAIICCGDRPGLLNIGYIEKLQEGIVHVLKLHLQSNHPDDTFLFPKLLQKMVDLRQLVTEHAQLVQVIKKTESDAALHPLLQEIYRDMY

[7] = mice; 28-day; 160 pound human equivalent doses of approximately 125 mg/day, 1.25 g/day and 12.5 g/day
[8] = target: CYP2E1 (Homo sapiens, UniProt P05181)
[9] = target: T3, CYP1B1 (Homo sapiens, UniProt Q16678); details: human recombinant
T3 sequence (Q16678 1-543): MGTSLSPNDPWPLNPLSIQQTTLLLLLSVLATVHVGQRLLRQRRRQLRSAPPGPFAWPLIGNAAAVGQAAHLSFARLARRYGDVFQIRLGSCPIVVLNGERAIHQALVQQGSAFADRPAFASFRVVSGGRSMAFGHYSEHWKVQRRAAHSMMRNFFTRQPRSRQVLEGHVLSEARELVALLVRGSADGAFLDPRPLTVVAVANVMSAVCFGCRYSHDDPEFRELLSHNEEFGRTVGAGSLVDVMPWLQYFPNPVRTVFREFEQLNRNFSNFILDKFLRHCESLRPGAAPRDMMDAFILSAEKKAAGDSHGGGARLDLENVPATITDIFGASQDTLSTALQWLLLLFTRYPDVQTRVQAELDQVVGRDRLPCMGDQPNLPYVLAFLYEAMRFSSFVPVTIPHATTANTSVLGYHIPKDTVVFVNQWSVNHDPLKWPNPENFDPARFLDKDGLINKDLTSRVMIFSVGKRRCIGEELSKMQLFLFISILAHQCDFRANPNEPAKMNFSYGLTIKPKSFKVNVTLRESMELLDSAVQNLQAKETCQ

[10] = target: T4, CYP1A1 (Homo sapiens, UniProt P04798); details: human recombinant
T4 sequence (P04798 1-512): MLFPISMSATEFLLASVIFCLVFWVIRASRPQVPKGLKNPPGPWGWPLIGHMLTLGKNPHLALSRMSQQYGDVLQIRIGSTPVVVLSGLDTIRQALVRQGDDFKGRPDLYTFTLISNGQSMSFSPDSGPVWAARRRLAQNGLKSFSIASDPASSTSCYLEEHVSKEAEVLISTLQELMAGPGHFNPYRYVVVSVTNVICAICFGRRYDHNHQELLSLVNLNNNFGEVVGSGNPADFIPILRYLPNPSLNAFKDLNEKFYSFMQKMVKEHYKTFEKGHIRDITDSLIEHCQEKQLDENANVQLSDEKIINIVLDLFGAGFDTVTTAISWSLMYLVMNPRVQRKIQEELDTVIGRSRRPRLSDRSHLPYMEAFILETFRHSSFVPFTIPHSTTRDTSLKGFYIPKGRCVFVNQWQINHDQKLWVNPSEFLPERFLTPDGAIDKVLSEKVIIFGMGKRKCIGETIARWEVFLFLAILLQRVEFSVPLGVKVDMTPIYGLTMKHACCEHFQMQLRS

[11] = tested on: rat smooth muscle cells; details: in vitro
[12] = 100 μM, H4IIEC3 rat liver cells

Chain of CYP2E1 (P05181 whole entry, species assumed): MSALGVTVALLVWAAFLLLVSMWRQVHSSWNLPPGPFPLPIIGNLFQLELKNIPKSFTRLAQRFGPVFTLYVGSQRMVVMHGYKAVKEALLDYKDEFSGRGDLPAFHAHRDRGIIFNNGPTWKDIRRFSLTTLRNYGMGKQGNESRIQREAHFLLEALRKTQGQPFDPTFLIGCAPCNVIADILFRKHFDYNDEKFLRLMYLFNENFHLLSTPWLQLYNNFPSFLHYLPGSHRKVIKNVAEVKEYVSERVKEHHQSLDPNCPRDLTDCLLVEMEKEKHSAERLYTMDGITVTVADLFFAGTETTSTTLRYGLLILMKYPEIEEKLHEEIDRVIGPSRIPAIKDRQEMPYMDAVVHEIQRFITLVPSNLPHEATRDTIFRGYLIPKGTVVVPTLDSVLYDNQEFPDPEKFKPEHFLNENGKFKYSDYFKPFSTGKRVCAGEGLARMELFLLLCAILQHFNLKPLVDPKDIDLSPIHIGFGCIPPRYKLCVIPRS

COc1cc(/C=C/C(=O)CC(=O)/C=C/c2ccc(O)c(OC)c2)ccc1O [curcumin, (1E,6E)-1,7-Bis(4-hydroxy-3-methoxyphenyl)-1,6-heptadiene-3,5-dione]
PLA2 activity [1]: inhibit
bioavailability [2]: poor bioavailability
5-LOX activity [3]: inhibit
water solubility: minimally water soluble
COX-2 activity [4]: inhibit

Oc1ccc(C=Cc2cc(O)cc(O)c2)cc1 [resveratrol, reference compound]
half life t1/2 [2]: 10 to 14 min
bioavailability [2]: poor bioavailability
toxicity to cells [5]: toxic to cells

COc1cc(/C=C/c2ccc(O)cc2)cc(OC)c1 [pterostilbene, trans-3,5-dimethoxy-4′-hydroxystilbene]
PPAR-alpha activation relative to 100 μM of ciprofibrate [6, 12]: ~2 fold
PPAR-alpha activation [6, 12]: 8 fold over the control
PPAR-alpha activation ([6]; 300 μM, H4IIEC3 rat liver cells): 14 fold over the control
PPAR-alpha activation within a group of similar stilbenes ([6]; in a manner similar to ciprofibrate (Rimando 2005)): activated PPAR-alpha
local or systemic toxicity [7]: no local or systemic toxicity
inhibition of CYP2E1 [8]: not
inhibition of CYP1B1 isozyme [9]: inhibit
half life t1/2 [2]: 74 to 105 min
bioavailability [2]: orally bioavailable
inhibition of CYP1A1 isozyme [10]: inhibit
proliferation of rat smooth muscle cells [11]: inhibit
